Reference: patent US12077503B2, “Substituted cyclic amides and their use as herbicides” (FMC CORPORATION, priority 2015, dated 2024)

Key:
Assay in all cases: Test C preemergence
Format in all cases: in vivo
[1] = system: nutsedge, yellow (yellow nutsedge, Cyperus esculentus); settings: for Plant response rating, Nutsedge, Yellow: scale 0 to 100, 0 no effect, 100 complete control
How it was run: (§1)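 Greenhouse test: seeds in a loam and sand blend treated preemergence, or seedlings at the 1- to 4-leaf stage (2 to 18 cm) in a peat, vermiculite and limestone mix treated postemergence, with test chemicals in a surfactant-containing non-phytotoxic solvent. Scored by eye at 13 to 15 d relative to controls, 0 (no effect) to 100 (complete control).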

[2] = system: ragweed (common ragweed, Ambrosia elatior); settings: for Plant response rating, Ragweed: scale 0 to 100, 0 no effect, 100 complete control
How it was run: as §1

[3] = system: ryegrass, Italian (Italian ryegrass, Lolium multiflorum); settings: for Plant response rating, Ryegrass, Italian: scale 0 to 100, 0 no effect, 100 complete control
How it was run: as §1

corn (Zea mays) = settings: for Plant response rating, Corn: scale 0 to 100, 0 no effect, 100 complete control
How it was run: as §1

[4] = system: velvetleaf (Abutilon theophrasti); settings: for Plant response rating, Velvetleaf: scale 0 to 100, 0 no effect, 100 complete control
How it was run: as §1

[5] = system: blackgrass (Alopecurus myosuroides); settings: for Plant response rating, Blackgrass: scale 0 to 100, 0 no effect, 100 complete control
How it was run: as §1

[6] = system: lambsquarters (Chenopodium album); settings: for Plant response rating, Lambsquarters: scale 0 to 100, 0 no effect, 100 complete control
How it was run: as §1

[7] = system: Galium (catchweed bedstraw, Galium aparine); settings: for Plant response rating, Galium: scale 0 to 100, 0 no effect, 100 complete control
How it was run: as §1

[8] = system: pigweed (Amaranthus retroflexus); settings: for Plant response rating, Pigweed: scale 0 to 100, 0 no effect, 100 complete control
How it was run: as §1

[9] = system: johnsongrass (Sorghum halepense); settings: for Plant response rating, Johnsongrass: scale 0 to 100, 0 no effect, 100 complete control
How it was run: as §1

[10] = system: waterhemp (common waterhemp, Amaranthus rudis); settings: for Plant response rating, Waterhemp: scale 0 to 100, 0 no effect, 100 complete control
How it was run: as §1

soybean (Glycine max) = settings: scale 0 to 100, 0 no effect, 100 complete control
How it was run: as §1

[11] = system: foxtail, giant (giant foxtail, Setaria faberii); settings: for Plant response rating, Foxtail, Giant: scale 0 to 100, 0 no effect, 100 complete control
How it was run: as §1

[12] = system: crabgrass, large (large crabgrass, Digitaria sanguinalis); settings: for Plant response rating, Crabgrass, Large: scale 0 to 100, 0 no effect, 100 complete control
How it was run: as §1

[13] = system: oilseed rape (Brassica napus); settings: for Plant response rating, Oilseed Rape: scale 0 to 100, 0 no effect, 100 complete control
How it was run: as §1

[14] = system: barnyardgrass (Echinochloa crus-galli); settings: for Plant response rating, Barnyardgrass: scale 0 to 100, 0 no effect, 100 complete control
How it was run: as §1

[15] = system: morningglory (Ipomoea coccinea); settings: for Plant response rating, Morningglory: scale 0 to 100, 0 no effect, 100 complete control
How it was run: as §1

[16] = system: wheat (winter wheat, Triticum aestivum); settings: for Plant response rating, Wheat: scale 0 to 100, 0 no effect, 100 complete control
How it was run: as §1

[17] = 31 g ai/ha, 0 is no effect, 100 is complete control

CC(C)Oc1cccc(C2CN(C)C(=O)C2C(=O)Nc2ccccc2S(C)(=O)=O)c1 (centres unmarked) [Compound 653]
Plant response rating (scale of 0 to 100), Nutsedge, Yellow [1, 17]: 0
Plant response rating, Nutsedge, Yellow ([1]; 62 g ai/ha): 0
Plant response rating, Nutsedge, Yellow ([1]; 125 g ai/ha): 0
Plant response rating, Nutsedge, Yellow ([1]; 250 g ai/ha): 25
Plant response rating (scale of 0 to 100), Ragweed [2, 17]: 0
Plant response rating, Ragweed ([2]; 62 g ai/ha): 5
Plant response rating, Ragweed ([2]; 125 g ai/ha): 35
Plant response rating, Ragweed ([2]; 250 g ai/ha): 60
Plant response rating (scale of 0 to 100), Ryegrass, Italian [3, 17]: 0
Plant response rating, Ryegrass, Italian ([3]; 62 g ai/ha): 10
Plant response rating, Ryegrass, Italian ([3]; 125 g ai/ha): 20
Plant response rating, Ryegrass, Italian ([3]; 250 g ai/ha): 25
Plant response rating (scale of 0 to 100), Corn (corn (Zea mays); [17]): 0
Plant response rating, Corn (corn (Zea mays); 62 g ai/ha): 0
Plant response rating, Corn (corn (Zea mays); 125 g ai/ha): 0
Plant response rating, Corn (corn (Zea mays); 250 g ai/ha): 20
Plant response rating (scale of 0 to 100), Velvetleaf [4, 17]: 0
Plant response rating, Velvetleaf ([4]; 62 g ai/ha): 25
Plant response rating, Velvetleaf ([4]; 125 g ai/ha): 35
Plant response rating, Velvetleaf ([4]; 250 g ai/ha): 50
Plant response rating (scale of 0 to 100), Blackgrass [5, 17]: 0
Plant response rating, Blackgrass ([5]; 62 g ai/ha): 15
Plant response rating, Blackgrass ([5]; 125 g ai/ha): 60
Plant response rating, Blackgrass ([5]; 250 g ai/ha): 90
Plant response rating (scale of 0 to 100), Lambsquarters [6, 17]: 15
Plant response rating, Lambsquarters ([6]; 62 g ai/ha): 35
Plant response rating, Lambsquarters ([6]; 125 g ai/ha): 50
Plant response rating, Lambsquarters ([6]; 250 g ai/ha): 60
Plant response rating (scale of 0 to 100), Galium [7, 17]: 0
Plant response rating, Galium ([7]; 62 g ai/ha): 100
Plant response rating, Galium ([7]; 125 g ai/ha): 30
Plant response rating, Galium ([7]; 250 g ai/ha): 40
Plant response rating (scale of 0 to 100), Pigweed [8, 17]: 30
Plant response rating, Pigweed ([8]; 62 g ai/ha): 20
Plant response rating, Pigweed ([8]; 125 g ai/ha): 50
Plant response rating, Pigweed ([8]; 250 g ai/ha): 85
Plant response rating (scale of 0 to 100), Johnsongrass [9, 17]: 0
Plant response rating, Johnsongrass ([9]; 62 g ai/ha): 0
Plant response rating, Johnsongrass ([9]; 125 g ai/ha): 40
Plant response rating, Johnsongrass ([9]; 250 g ai/ha): 55
Plant response rating (scale of 0 to 100), Waterhemp [10, 17]: 35
Plant response rating, Waterhemp ([10]; 62 g ai/ha): 30
Plant response rating, Waterhemp ([10]; 125 g ai/ha): 50
Plant response rating, Waterhemp ([10]; 250 g ai/ha): 80
Plant response rating, Soybean (soybean (Glycine max); 125 g ai/ha): 5
Plant response rating, Soybean (soybean (Glycine max); 250 g ai/ha): 40
Plant response rating (scale of 0 to 100), Foxtail, Giant [11, 17]: 85
Plant response rating, Foxtail, Giant ([11]; 62 g ai/ha): 95
Plant response rating, Foxtail, Giant ([11]; 125 g ai/ha): 95
Plant response rating, Foxtail, Giant ([11]; 250 g ai/ha): 100
Plant response rating (scale of 0 to 100), Crabgrass, Large [12, 17]: 90
Plant response rating, Crabgrass, Large ([12]; 62 g ai/ha): 95
Plant response rating, Crabgrass, Large ([12]; 125 g ai/ha): 100
Plant response rating, Crabgrass, Large ([12]; 250 g ai/ha): 100
Plant response rating (scale of 0 to 100), Oilseed Rape [13, 17]: 0
Plant response rating, Oilseed Rape ([13]; 62 g ai/ha): 0
Plant response rating, Oilseed Rape ([13]; 125 g ai/ha): 30
Plant response rating, Oilseed Rape ([13]; 250 g ai/ha): 85
Plant response rating (scale of 0 to 100), Barnyardgrass [14, 17]: 20
Plant response rating, Barnyardgrass ([14]; 62 g ai/ha): 55
Plant response rating, Barnyardgrass ([14]; 125 g ai/ha): 80
Plant response rating, Barnyardgrass ([14]; 250 g ai/ha): 90
Plant response rating (scale of 0 to 100), Morningglory [15, 17]: 0
Plant response rating, Morningglory ([15]; 62 g ai/ha): 0
Plant response rating, Morningglory ([15]; 125 g ai/ha): 0
Plant response rating, Morningglory ([15]; 250 g ai/ha): 0
Plant response rating (scale of 0 to 100), Wheat [16, 17]: 0
Plant response rating, Wheat ([16]; 62 g ai/ha): 0
Plant response rating, Wheat ([16]; 125 g ai/ha): 0
Plant response rating, Wheat ([16]; 250 g ai/ha): 40

O=C1NCC(c2ccc(Br)cc2)C1C(=O)Nc1cccc(F)c1F (centres unmarked) [Compound 446]
Plant response rating, Nutsedge, Yellow ([1]; 31 g ai/ha): 0
Plant response rating, Nutsedge, Yellow ([1]; 62 g ai/ha): 0
Plant response rating, Nutsedge, Yellow ([1]; 125 g ai/ha): 0
Plant response rating, Nutsedge, Yellow ([1]; 250 g ai/ha): 0
Plant response rating, Ragweed ([2]; 31 g ai/ha): 25
Plant response rating, Ragweed ([2]; 62 g ai/ha): 40
Plant response rating, Ragweed ([2]; 125 g ai/ha): 75
Plant response rating, Ragweed ([2]; 250 g ai/ha): 85
Plant response rating, Ryegrass, Italian ([3]; 62 g ai/ha): 0
Plant response rating, Ryegrass, Italian ([3]; 125 g ai/ha): 0
Plant response rating, Ryegrass, Italian ([3]; 250 g ai/ha): 45
Plant response rating, Corn (corn (Zea mays); 31 g ai/ha): 0
Plant response rating, Corn (corn (Zea mays); 62 g ai/ha): 0
Plant response rating, Corn (corn (Zea mays); 125 g ai/ha): 0
Plant response rating, Corn (corn (Zea mays); 250 g ai/ha): 10
Plant response rating, Velvetleaf ([4]; 62 g ai/ha): 0
Plant response rating, Velvetleaf ([4]; 125 g ai/ha): 10
Plant response rating, Velvetleaf ([4]; 250 g ai/ha): 30
Plant response rating, Blackgrass ([5]; 31 g ai/ha): 0
Plant response rating, Blackgrass ([5]; 62 g ai/ha): 0
Plant response rating, Blackgrass ([5]; 125 g ai/ha): 50
Plant response rating, Blackgrass ([5]; 250 g ai/ha): 55
Plant response rating, Lambsquarters ([6]; 31 g ai/ha): 60
Plant response rating, Lambsquarters ([6]; 62 g ai/ha): 50
Plant response rating, Lambsquarters ([6]; 125 g ai/ha): 55
Plant response rating, Lambsquarters ([6]; 250 g ai/ha): 95
Plant response rating, Galium ([7]; 31 g ai/ha): 0
Plant response rating, Galium ([7]; 62 g ai/ha): 90
Plant response rating, Galium ([7]; 125 g ai/ha): 90
Plant response rating, Galium ([7]; 250 g ai/ha): 95
Plant response rating, Pigweed ([8]; 31 g ai/ha): 50
Plant response rating, Pigweed ([8]; 62 g ai/ha): 75
Plant response rating, Pigweed ([8]; 125 g ai/ha): 80
Plant response rating, Pigweed ([8]; 250 g ai/ha): 85
Plant response rating, Johnsongrass ([9]; 31 g ai/ha): 20
Plant response rating, Johnsongrass ([9]; 62 g ai/ha): 40
Plant response rating, Johnsongrass ([9]; 125 g ai/ha): 50
Plant response rating, Johnsongrass ([9]; 250 g ai/ha): 65
Plant response rating, Waterhemp ([10]; 62 g ai/ha): 100
Plant response rating, Waterhemp ([10]; 125 g ai/ha): 80
Plant response rating, Waterhemp ([10]; 250 g ai/ha): 98
Plant response rating, Soybean (soybean (Glycine max); 62 g ai/ha): 20
Plant response rating, Soybean (soybean (Glycine max); 125 g ai/ha): 10
Plant response rating, Soybean (soybean (Glycine max); 250 g ai/ha): 25
Plant response rating, Foxtail, Giant ([11]; 31 g ai/ha): 85
Plant response rating, Foxtail, Giant ([11]; 62 g ai/ha): 90
Plant response rating, Foxtail, Giant ([11]; 125 g ai/ha): 90
Plant response rating, Foxtail, Giant ([11]; 250 g ai/ha): 95
Plant response rating, Crabgrass, Large ([12]; 31 g ai/ha): 100
Plant response rating, Crabgrass, Large ([12]; 62 g ai/ha): 100
Plant response rating, Crabgrass, Large ([12]; 125 g ai/ha): 100
Plant response rating, Crabgrass, Large ([12]; 250 g ai/ha): 100
Plant response rating, Oilseed Rape ([13]; 31 g ai/ha): 0
Plant response rating, Oilseed Rape ([13]; 62 g ai/ha): 85
Plant response rating, Oilseed Rape ([13]; 125 g ai/ha): 90
Plant response rating, Oilseed Rape ([13]; 250 g ai/ha): 95
Plant response rating, Barnyardgrass ([14]; 31 g ai/ha): 90
Plant response rating, Barnyardgrass ([14]; 62 g ai/ha): 90
Plant response rating, Barnyardgrass ([14]; 125 g ai/ha): 90
Plant response rating, Barnyardgrass ([14]; 250 g ai/ha): 95
Plant response rating, Morningglory ([15]; 31 g ai/ha): 0
Plant response rating, Morningglory ([15]; 62 g ai/ha): 0
Plant response rating, Morningglory ([15]; 125 g ai/ha): 0
Plant response rating, Morningglory ([15]; 250 g ai/ha): 0
Plant response rating, Wheat ([16]; 62 g ai/ha): 0
Plant response rating, Wheat ([16]; 125 g ai/ha): 0
Plant response rating, Wheat ([16]; 250 g ai/ha): 30
